Assay results: patent US20200331882A1, “COMPOUND FOR SIMULTANEOUSLY INHIBITING LSD1 AND HDAC TARGETS AND APPLICATION THEREOF” (PEKING UNIVERSITY SHENZHEN GRADUATE SCHOOL, priority 2018, published 2020)

Columns and labels:
[1] = system: human breast cancer cell line MDA-MB-231; assay: MTT tumor cell proliferation; format: cell-based; conditions: 72 h
Excerpt: (§1) MTT colorimetric method was used to detect the inhibitory activity of a series of compounds (i.e. ZZY-001 to ZZY-016, a total of 16 kinds) of the embodiment of the present invention on the proliferation of tumor cells in vitro. The full name of MTT is 3-(4,5-dimethyl-2-thiazolyl)-2,5-diphenyl-2-H-tetrazolium romide, which is a yellow dye also known as thiazolyl blue. […] DMSO can dissolve Formazan deposited in cells and the absorbance value can be measured with a enzyme marker at a wavelength of 490 nm. In a certain range of cell number, the production of Formazan is proportional to the number of cells, so the number of living cells can be inferred according to the measured OD value.
In the experiments of this embodiment, the selected cell lines are human breast cancer cell line MDA-MB-231 and BT-474, human colon adenocarcinoma cell HCT116, mouse colon cancer cell CT26.WT, mouse breast cancer cell 4T1. During the test, the cells in logarithmic phase and in good condition were digested with 0.25% trypsin digestion solution to make the adherent cells fall off, and the cell suspension (suspension cells without trypsin digestion) was made by counting 2-4×10^4 cells/ml. The cell suspension was inoculated on a 96-well plate at 100 μl/well and cultured in a constant temperature CO2 incubator for 24 h. Then the tested drugs were added, 100 μl/well, and cultured for 72 h. MTT was added to a 96-well plate, 20 μl/well, and reacted for 4 h in the incubator. Absorb the supernatant, add DMSO, 150 μl/well and shake for 10 min on the plate shaker. The optical density (OD value) of each well was measured by enzyme marker at the wavelength of 490 nm. […]

[2] = biological target: T1, recombinant human LSD1 protein (Homo sapiens, UniProt O60341); assay: In vitro LSD1 inhibitory activity, LSD1-HRP coupling reaction (Amplex Red); format: biochemical; conditions: LSD1 enzyme activity in vitro; 30 min preincubation; H3K4Me2 peptide
T1 construct: made in house; host or cells: E. coli
Excerpt: LSD1 activity was detected by using LSD1-HRP coupling reaction. […] During the reduction of H2O2 to H2O, Amplex Red acts as an electron donor and oxidizes to Resorufin for detection of fluorescence. […] Ampliflu™ Red, peroxidase, from horseradish required for the experiment was purchased from SIGMA; H3K4Me2 substrate peptide was purchased from GL Biochemical (Shanghai) Co., Ltd.

[3] = biological target: T2, HDAC1 (Homo sapiens, UniProt Q13547); assay: In vitro HDAC1 inhibitory activity, FLUOR DE LYS HDAC1 fluorometric assay kit; format: biochemical; conditions: HDAC1 enzyme activity in vitro
T2 construct: purchased Enzo Biochem Inc
T2 sequence (Q13547 whole entry): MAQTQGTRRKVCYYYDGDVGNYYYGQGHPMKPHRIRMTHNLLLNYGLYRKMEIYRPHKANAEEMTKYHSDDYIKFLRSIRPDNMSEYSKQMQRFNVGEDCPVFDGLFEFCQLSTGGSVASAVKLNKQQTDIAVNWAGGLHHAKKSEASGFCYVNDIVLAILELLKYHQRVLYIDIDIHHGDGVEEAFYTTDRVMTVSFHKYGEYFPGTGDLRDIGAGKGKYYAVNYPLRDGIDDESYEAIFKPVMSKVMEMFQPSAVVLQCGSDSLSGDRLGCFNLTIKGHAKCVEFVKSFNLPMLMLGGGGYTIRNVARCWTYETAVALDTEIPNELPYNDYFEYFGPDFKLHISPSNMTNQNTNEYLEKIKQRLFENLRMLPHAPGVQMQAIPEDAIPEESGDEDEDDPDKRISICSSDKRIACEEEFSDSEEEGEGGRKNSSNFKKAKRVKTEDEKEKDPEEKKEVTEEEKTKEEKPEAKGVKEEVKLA
Excerpt: The principle was shown in the following reaction formula: HDAC1 catalyzes the deacetylation of a substrate FLUOR DE LYS® Substrate (containing an acetylated side chain), the product can react with FLUOR DE LYS® Developer II to generate fluorescence (shown in the following reaction process), and the inhibitory activity of a molecule to be detected on HDAC1 can be indirectly obtained by detecting the fluorescence intensity of the product. In this experiment, 360 nm was selected as the excitation wavelength and 460 nm as the emission wavelength for detection. FLUOR DE LYS® HDAC1 fluorometric drug discovery assay kit required for experiments was purchased from Enzo Biochem Inc.
During the test, the sample was prepared according to the specific experimental conditions of blocking the HDAC1 enzyme activity of the compound of the present invention in vitro in accordance with Table 2 below.

[4] = system: mouse colon cancer cell CT26.WT; assay: MTT tumor cell proliferation; format: cell-based; conditions: 72 h
Excerpt: as §1
(§2) The cell suspension was inoculated on a 96-well plate at 100 μl/well and cultured in a constant temperature CO2 incubator for 24 h. Then the tested drugs were added, 100 μl/well, and cultured for 72 h. MTT was added to a 96-well plate, 20 μl/well, and reacted for 4 h in the incubator. Absorb the supernatant, add DMSO, 150 μl/well and shake for 10 min on the plate shaker. The optical density (OD value) of each well was measured by enzyme marker at the wavelength of 490 nm.

[5] = system: human colon adenocarcinoma cell HCT116; assay: MTT tumor cell proliferation; format: cell-based
Excerpt: as §1, §2

[6] = system: human breast cancer cell line BT-474; assay: MTT tumor cell proliferation; format: cell-based; conditions: 72 h
Excerpt: as §1, §2

[7] = system: mouse breast cancer cell 4T1; assay: MTT tumor cell proliferation; format: cell-based; conditions: 72 h
Excerpt: as §1, §2

SMILES | IC50 [2] [nM] | IC50 [3] [nM] | other results
Cc1cc(/C=C/C(=O)NO)ccc1-c1ccc(N2CCNCC2)cc1NC(=O)c1ccccc1 [ZZY-002] | 1320 | 71.6 | IC50 ([1]; Homo sapiens): 1370 nM; IC50 ([4]; Mus musculus): 31200 nM; IC50 ([5]; Homo sapiens, HCT-116, 72 h): 1290 nM; IC50 ([6]; Homo sapiens): 7560 nM; IC50 ([7]; Mus musculus): 5610 nM
Cc1ccc(C(=O)Nc2cc(N3CCNCC3)ccc2-c2ccc(C(=O)Nc3ccccc3N)cc2C)cc1 [ZZY-005] | 5160 | 8940 | –
O=C(/C=C/c1ccc(-c2ccc(-n3ccnc3)cc2)cc1)NO [ZZY-010] | 8260 | 3520 | –
O=C(/C=C/c1ccc(-c2ccc(N3CCOCC3)cc2)cc1)NO [ZZY-008] | 716 | 9360 | –
Cc1cc(/C=C/C(=O)NO)ccc1-c1ccc(N2CCOCC2)cc1 [ZZY-007] | 477 | 1110 | –
Cc1cc(C(=O)Nc2ccccc2N)ccc1-c1ccc(N2CCNCC2)cc1 [ZZY-006] | 2380 | 5380 | –
Cc1cc(/C=C/C(=O)NO)ccc1-c1ccc(N2CCN(C)CC2)cc1 [ZZY-011] | 131 | 434 | IC50 ([1]; Homo sapiens): 2040 nM; IC50 ([4]; Mus musculus): 1050 nM; IC50 ([5]; Homo sapiens, HCT-116, 72 h): 728 nM; IC50 ([6]; Homo sapiens): 5900 nM; IC50 ([7]; Mus musculus): 2600 nM
Cc1cc(/C=C/C(=O)NO)ccc1-c1ccc(N2CCNCC2)cc1 [ZZY-001] | 1550 | 671 | IC50 ([1]; Homo sapiens): 2320 nM; IC50 ([4]; Mus musculus): 2200 nM; IC50 ([5]; Homo sapiens, HCT-116, 72 h): 1540 nM; IC50 ([6]; Homo sapiens): 17800 nM; IC50 ([7]; Mus musculus): 3870 nM
CN1CCN(c2ccc(-c3ccc(/C=C/C(=O)NO)cc3)cc2)CC1 [ZZY-012] | 16.1 | 942 | IC50 ([1]; Homo sapiens): 1140 nM; IC50 ([4]; Mus musculus): 737 nM; IC50 ([5]; Homo sapiens, HCT-116, 72 h): 469 nM; IC50 ([6]; Homo sapiens): 4210 nM; IC50 ([7]; Mus musculus): 2320 nM
Cc1cc(/C=C/C(=O)NO)ccc1-c1ccc(N2CCNCC2)nc1 [ZZY-015] | 879 | 262 | –
O=C(/C=C/c1ccc(-c2ccc(N3CCCCC3)cc2)cc1)NO [ZZY-014] | 1110 | 9860 | –
O=C(/C=C/c1ccc(-c2ccc(N3CCNCC3)nc2)cc1)NO [ZZY-016] | 991 | 451 | –
Cc1cc(/C=C/C(=O)NO)ccc1-c1ccc(N2CCCCC2)cc1 [ZZY-013] | 1410 | 9640 | –
N[C@@H]1C[C@H]1c1ccccc1 (racemic) [TCP, tranylcypromine, reference compound] | – | > 100000 | IC50 [1]: > 10000 nM; IC50 [4]: > 10000 nM; IC50 ([5]; 72 h): > 10000 nM; IC50 [6]: > 10000 nM; IC50 [7]: > 10000 nM
Cc1cc(/C=C/C(=O)NO)ccc1-c1ccc(-n2ccnc2)cc1 [ZZY-009] | 1400 | 2800 | –
